Data published in patent US8592383B2, “Cycloalkyl-fused tetrahydroquinolines as CRTH2 receptor modulators” (Merck Sharp & Dohme Corp., priority 2011, dated 2013).

Biological target: T1, hCRTH2 (Homo sapiens, UniProt Q9Y5Y4)
T1 sequence (Q9Y5Y4 1-395): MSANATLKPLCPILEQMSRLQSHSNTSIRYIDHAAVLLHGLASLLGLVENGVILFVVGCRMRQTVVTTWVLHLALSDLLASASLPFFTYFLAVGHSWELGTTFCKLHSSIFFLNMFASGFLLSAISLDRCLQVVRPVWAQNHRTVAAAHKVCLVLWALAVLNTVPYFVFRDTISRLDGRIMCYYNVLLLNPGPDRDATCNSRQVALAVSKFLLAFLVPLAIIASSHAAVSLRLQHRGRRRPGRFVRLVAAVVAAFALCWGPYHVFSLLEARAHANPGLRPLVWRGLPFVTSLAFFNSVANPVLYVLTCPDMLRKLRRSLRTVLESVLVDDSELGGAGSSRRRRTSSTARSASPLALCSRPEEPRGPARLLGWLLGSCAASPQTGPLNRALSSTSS
Design: expressed in transfected cells; host or cells: HEK (human embryonic kidney) cells expressing hCRTH2
Settings: Radioligand Binding Assay B; 0.7 nM [3H]PGD2, HEK-hCRTH2 membranes
Procedure: The filters were then washed with 4 mL of the same buffer and residual radioligand bound to the filter was determined by liquid scintillation counting following equilibration in 25 μl Ultima Gold F™ (Unifilter) (Packard).

**Q.** `CCN(C(=O)CCC(=O)O)C1c2ccccc2N(C(=O)c2cccnc2)C2CCCC12` (racemic) [13E, 4-{ethyl[cis,cis-4-(pyridin-3-ylcarbonyl)-2,3,3a,4,9,9a-hexahydro-1H-cyclopenta[b]quinolin-9-yl]amino}-4-oxobutanoic acid] was tested. Which Ki did it give?
**A.** The Ki was 123 nM.

**Q.** Which Ki does the source give for `O=C(O)CCC(=O)N(C1CC1)C1c2ccccc2N(C(=O)c2ccsc2)C2CCCC21` (racemic) [14E, 4-{cyclopropyl[cis,cis-4-(thiophen-3-ylcarbonyl)-2,3,3a,4,9,9a-hexahydro-1H-cyclopenta[b]quinolin-9-yl]amino}-4-oxobutanoic acid] here?
**A.** The Ki was 9.9 nM.

Same assay, conditions: Radioligand Binding Assay B; Table B, rated A-D

**Q.** For “4-{cyclopropyl[cis,cis-6-fluoro-4- (phenylcarbonyl)-2,3,3a,4,9,9a- hexahydro-1H- cyclopenta[b]quinolin-9-yl]amino}- 4-oxobutanoic acid [16D]”, which Ki is on record?
**A.** The Ki was 20.1 to 200 nM.

**Q.** For `COC(=O)CCC(=O)N(c1ccccc1)C1c2ccccc2N(C(=O)c2cccnc2)C2CCCC21` (racemic) [12B, methyl 4-oxo-4-{phenyl[cis, cis-4-(pyridin-3-ylcarbonyl)-2,3,3a,4,9,9a-hexahydro-1H-cyclopenta[b]quinolin-9-yl]amino}butanoate], which Ki is on record?
**A.** The Ki was 20.1 to 200 nM.

**Q.** How did the Ki turn out when `O=C(O)CCC(=O)N(c1ccccc1)C1c2ccccc2N(C(=O)OCc2ccccc2)C2CCCC21` (racemic) [12C, 4-[{cis,cis-4-[(benzyloxy)carbonyl]-2,3,3a,4,9,9a-hexahydro-1H-cyclopenta[b]quinolin-9-yl}(phenyl)amino]-4-oxobutanoic acid] was run?
**A.** The Ki was 5.1 to 20 nM.

**Q.** With `O=C(O)CCC(=O)N(c1ccccc1)C1c2ccccc2N(C(=O)c2cccnc2)C2CCCC21` (racemic) [12D, 4-oxo-4-{phenyl[cis,cis-4-(pyridin-3-ylcarbonyl)-2,3,3a,4,9,9a-hexahydro-1H-cyclopenta[b]quinolin-9-yl]amino}butanoic acid] as the molecule, how does the Ki read?
**A.** The Ki was 5.1 to 20 nM.

**Q.** With `O=C(O)CCC(=O)N(c1ccccc1)C1c2ccccc2N(C(=O)c2ccccc2)C2CCCC21` (racemic) [12E, 4-oxo-4-{phenyl[cis,cis-4-(phenylcarbonyl)-2,3,3a,4,9,9a-hexahydro-1H-cyclopenta[b]quinolin-9-yl]amino}butanoic acid] as the molecule, how does the Ki read?
**A.** The Ki was 5.1 to 20 nM.

**Q.** For `CCN(C(=O)CCC(=O)O)C1c2ccccc2N(C(=O)c2ccc(OC(F)(F)F)cc2)C2CCCC12` (racemic) [13C, 4-{ethyl [cis,cis-4-{[4-(trifluoromethoxy)phenyl]carbonyl}-2,3,3a,4,9,9a-hexahydro-1H-cyclopenta[b]quinolin-9-yl]amino}-4-oxobutanoic acid], which Ki is on record?
**A.** Its Ki is 5.1 to 20 nM.

**Q.** For `CCN(C(=O)CCC(=O)O)C1c2ccccc2N(C(=O)c2ccccc2)C2CCCC12` (racemic) [13D, 4-{ethyl[cis,cis-4-(phenylcarbonyl)-2,3,3a,4,9,9a-hexahydro-1H-cyclopenta[b]quinolin-9-yl]amino}-4-oxobutanoic acid], which Ki is on record?
**A.** Its Ki is 5.1 to 20 nM.

**Q.** With `CCN(C(=O)CCC(=O)O)C1c2ccccc2N(C(=O)c2cccnc2)C2CCCC12` (racemic) [13E, 4-{ethyl[cis,cis-4-(pyridin-3-ylcarbonyl)-2,3,3a,4,9,9a-hexahydro-1H-cyclopenta[b]quinolin-9-yl]amino}-4-oxobutanoic acid] as the molecule, how does the Ki read?
**A.** Its Ki is 20.1 to 200 nM.

**Q.** How did the Ki turn out when `O=C(O)CCC(=O)N(C1CC1)C1c2ccccc2N(C(=O)c2ccc(OC(F)(F)F)cc2)C2CCCC21` (racemic) [14C, 4-{cyclopropyl[cis,cis-4-{[4-(trifluoromethoxy)phenyl]carbon-yl}-2,3,3a,4,9,9a-hexahydro-1H-cyclopenta[b]quinolin-9-yl]amino}-4-oxobutanoic acid] was run?
**A.** Its Ki is 5.1 to 20 nM.

**Q.** How did the Ki turn out when `Cn1c(C(=O)N2c3ccccc3C(N(C(=O)CCC(=O)O)C3CC3)C3CCCC32)cc2ccccc21` (racemic) [14D, 4-(cyclopropyl{cis,cis-4-[(1-methyl-1H-indol-2-yl)carbonyl]-2,3,3a,4,9,9a-hexahydro-1H-cyclopenta[b]quinolin-9-yl}amino)-4-oxobutanoic acid] was run?
**A.** Its Ki is 5.1 to 20 nM.

**Q.** How did the Ki turn out when `O=C(O)CCC(=O)N(C1CC1)C1c2ccccc2N(C(=O)c2ccsc2)C2CCCC21` (racemic) [14E, 4-{cyclopropyl[cis,cis-4-(thiophen-3-ylcarbonyl)-2,3,3a,4,9,9a-hexahydro-1H-cyclopenta[b]quinolin-9-yl]amino}-4-oxobutanoic acid] was run?
**A.** The Ki was 5.1 to 20 nM.

**Q.** `O=C(O)CCC(=O)N(C1CC1)C1c2ccccc2N(C(=O)c2ccc(Br)cc2)C2CCCC21` (racemic) [14F, 4-[{cis,cis-4-[(4-bromophenyl)carbonyl]-2,3,3a,4,9,9a-hexahydro-1H-cyclopenta[b]quinolin-9-yl}(cyclopropyl)amino]-4-oxobutanoic acid] was tested. Which Ki did it give?
**A.** The Ki was 5.1 to 20 nM.
